pEC50, pIC50: −log10 of the molar value.
How the values were obtained:
[1] = tested on: Cell viability
[2] = tested on: HCoV 229E; experiment: HCoV 229E cytopathic effect (CPE) assay, CellTiter Glo; format: cell-based, Human Coronavirus (HCov) 229E; settings: protection from virus-induced CPE
Experimental: The antiviral activity of compounds is calculated based on the protection of the virus-induced CPE at each concentration normalized by the virus control.
Reagents and instruments used in this assay include luminescent cell viability assay kit CellTiter Glo (Promega) and Microplate Reader Synergy2 (BioTek).
Cytopathic effect (CPE) is measured by CellTiter Glo following the manufacturer's manual. The antiviral activity of compounds is calculated based on the protection of the virus-induced CPE at each concentration normalized by the virus control.

[3] = biological target: T1, 229E Mpro (Human coronavirus 229E, UniProt P0C6X1); experiment: 229E Mpro assay (Table 3); format: biochemical, Human Coronavirus (HCov) 229E
T1 construct: Mpro
Experimental: Compounds are assayed using standard methods to assess compound activity and IC50. […] The assay buffer contains 20 mM of Tris-HCl (pH 7.3), 100 mM of NaCl, 1 mM of EDTA, 5 mM of TCEP and 0.1% BSA.
The compounds are added to an assay plate.
IC50 values of compounds are calculated with the GraphPad Prism software using the nonlinear regression model of log(inhibitor) vs. response—Variable slope (four parameters). The inhibition activity is calculated using the formula below, IC50 values is calculated using the Inhibition % data. Inhibition %=[(Sample−Average ZPE)/(Average HPE−Average ZPE)]*100%^# • ^#HEP: Hundred percent effect controls. […] Containing enzyme+substrate, no compound. • Sample: Compound activity testing wells. Containing compound+enzyme+substrate. • BG: Compound background control wells. Containing compound+substrate, no enzyme.

[4] = biological target: COVID-19 (nCoV-2019, SARS-CoV2) Mpro (Severe acute respiratory syndrome coronavirus 2, UniProt P0DTD1); experiment: SARS-CoV2 Mpro enzymatic assay; format: biochemical; settings: 25 nM Mpro, 25 μM substrate

T1 sequence (P0C6X1 2966-3267): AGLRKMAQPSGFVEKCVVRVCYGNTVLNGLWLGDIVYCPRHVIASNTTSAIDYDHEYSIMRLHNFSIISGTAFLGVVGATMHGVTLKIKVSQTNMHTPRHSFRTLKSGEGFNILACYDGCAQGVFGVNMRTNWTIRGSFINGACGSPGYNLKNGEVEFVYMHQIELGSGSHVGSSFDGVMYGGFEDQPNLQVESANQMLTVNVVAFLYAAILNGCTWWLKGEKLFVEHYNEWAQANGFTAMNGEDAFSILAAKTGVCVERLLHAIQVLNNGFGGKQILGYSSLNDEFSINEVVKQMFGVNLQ

Compound `CC(C)CC(NC(=O)c1nc2ncccc2[nH]1)C(=O)NC(C#N)CC1CCNC1=O` (single isomer, unassigned) [130 (Isomer 1)] has a CC50 [1] of over 30000 nM.

Compound `COc1cccc2[nH]c(C(=O)NC(CC(C)(F)F)C(=O)NC(C#N)CC3CCNC3=O)cc12` (single isomer, unassigned) [497 (Isomer 2)] has a pEC50 [2] of over 5.70 and a pEC50 [3] of over 5.70.

Work on `COc1cccc2[nH]c(C(=O)N3CC4(C[C@H]3C(=O)N[C@H](C#N)C[C@@H]3CCCNC3=O)CC(F)(F)C4)cc12` (single isomer, unassigned) [723 (Isomer 1)] yielded a pIC50 [4] of 4.52 to 5.00 and a pEC50 [3] of 4.52 to 5.00.

For `COc1cccc2[nH]c(C(=O)N3CC4(C[C@H]3C(=O)N[C@H](C#N)C[C@@H]3CCCNC3=O)CC(F)(F)C4)cc12` (single isomer, unassigned) [723 (Isomer 2)], the pIC50 [4] was over 5.70 and the pEC50 [3] was over 5.70.

`N#C[C@H](C[C@@H]1CCCNC1=O)NC(=O)[C@@H]1CC2(CN1C(=O)c1cc3cccc(Cl)c3[nH]1)CC(F)(F)C2` (single isomer, unassigned) [743 (Isomer 1)] showed a pIC50 [4] of under 4.52 and a pEC50 [3] of under 4.52.

In the case of `N#C[C@H](C[C@@H]1CCCNC1=O)NC(=O)[C@@H]1CC2(CN1C(=O)c1cc3cccc(Cl)c3[nH]1)CC(F)(F)C2` (single isomer, unassigned) [743 (Isomer 2)], the pIC50 [4] was over 5.70 and the pEC50 [3] was over 5.70.

Compound `CC1(C)CCC(CC(C#N)NC(=O)[C@H](CC2CC2)NC(=O)c2cc3cccc(Cl)c3[nH]2)C(=O)N1` (single isomer, unassigned) [749A (Isomer 1)] has a pIC50 [4] of over 5.70.

In the case of `COC(=O)NS(=O)(=O)n1nccc1C(=O)NC(CC1CC1)C(=O)NC(C#N)CC1CCCNC1=O` (single isomer, unassigned) [787A (Isomer 2)], the pIC50 [4] was over 5.70 and the pEC50 [3] was 5.00 to 5.70.

For `CC1(C)CC(C[C@@H](C#N)NC(=O)[C@H](CC2CC2)NC(=O)c2cc3cccc(Cl)c3[nH]2)C(=O)N1` (single isomer, unassigned) [1053 (Isomer 3)], the pEC50 [3] was 5.00 to 5.70.

`CC1(C)CC(CC(C#N)NC(=O)C(CC2CC2)NC(=O)c2cc3cccc(Cl)c3[nH]2)C(=O)N1` (single isomer, unassigned) [1053 (Isomer 4)] was tested, and the pEC50 [3] was over 5.70.

In the case of `COc1cccc2[nH]c(C(=O)N[C@H](CC3CC3)C(=O)N[C@H](C#N)C[C@@H]3CCC(C)(C)NC3=O)cc12` (single isomer, unassigned; isomer 1) [787A (Isomer 1)], the pEC50 [3] was 5.00 to 5.70.

For `N#C[C@H](C[C@@H]1CCNC1=O)NC(=O)[C@@H]1CS[C@H]2CC[C@H](NC(=O)OCc3ccccc3)C(=O)N21` [Compound 457, Benzyl((3R,6S,8aS)-3-(((S)-1-cyano-2-((S)-2-oxopyrrolidin-3-yl)ethyl)carbamoyl)-5-oxohexahydro-2H-thiazolo[3,2-a]pyridin-6-yl)carbamate], the pEC50 [3] was under 4.52.

`Cc1cc(C(=O)N[C@H]2CC[C@@H]3SC[C@@H](C(=O)N[C@H](C#N)C[C@@H]4CCNC4=O)N3C2=O)no1` [Compound 459, N-((3R,6S,8aS)-3-(((S)-1-cyano-2-((S)-2-oxopyrrolidin-3-yl)ethyl)carbamoyl)-5-oxohexahydro-2H-thiazolo[3,2-a]pyridin-6-yl)-5-methylisoxazole-3-carboxamide] was tested, and the pEC50 [3] was under 4.52.

In the case of `N#C[C@H](C[C@@H]1CCNC1=O)NC(=O)[C@H](CC1CC1)NC(=O)c1nc2c(Cl)cc(Cl)cc2[nH]1` [Compound 525, 4,6-dichloro-N-[(1S)-2-[[(1S)-1-cyano-2-[(3S)-2-oxopyrrolidin-3-yl]ethyl]amino]-1-(cyclopropylmethyl)-2-oxo-ethyl]-1H-benzimidazole-2-carboxamide], the pEC50 [3] was over 5.70.

`N#C[C@H](C[C@@H]1CCNC1=O)NC(=O)[C@H](CC1CC1)NC(=O)c1cc2ccc(Cl)cc2[nH]1` [Compound 529, 6-chloro-N-[(1S)-2-[[(1S)-1-cyano-2-[(3S)-2-oxopyrrolidin-3-yl]ethyl]amino]-1-(cyclopropylmethyl)-2-oxo-ethyl]-1H-indole-2-carboxamide] showed a pEC50 [3] of over 5.70.

`N#C[C@H](C[C@@H]1CCNC1=O)NC(=O)[C@H](CC1CC1)NC(=O)c1cc2c(Cl)ccc(Cl)c2[nH]1` [Compound 691, 4,7-dichloro-N-[(1S)-2-[[(1S)-1-cyano-2-[(3S)-2-oxopyrrolidin-3-yl]ethyl]amino]-1-(cyclopropylmethyl)-2-oxo-ethyl]-1H-indole-2-carboxamide] showed a pEC50 [3] of over 5.70.

For `COc1cc(Cl)c2[nH]c(C(=O)N[C@@H](CC3CC3)C(=O)N[C@H](C#N)C[C@@H]3CCNC3=O)cc2c1` [Compound 695, 7-chloro-N-[(1S)-2-[[(1S)-1-cyano-2-[(3S)-2-oxopyrrolidin-3-yl]ethyl]amino]-1-(cyclopropylmethyl)-2-oxo-ethyl]-5-methoxy-1H-indole-2-carboxamide], the pEC50 [3] was over 5.70.

Reference: US12145911B2, “Inhibitors of cysteine proteases and methods of use thereof” (priority 2020, dated 2024)
